The source made the active and inactive calls. The calls are words filed in the database; no cut-off is given here.

Type in all cases: functional
The subject of test [1] is Mus musculus. The test is described as follows: Anti-inflammatory activity in TPA-induced Balb/c mouse ear edema model assessed as reduction in TPA-induced ear edema at 0.75 uM administered topically 6 mins prior to TPA administration measured after 6 hrs relative to control. Set-up: scale not given: the % may be the effect or the level left.
The subject of test [2] is Mus musculus. The test is described as follows: Anti-inflammatory activity in Balb/c mouse assessed as reduction in TPA-induced dense dermal leukocyte infiltration at 0.75 uM administered topically 6 mins prior to TPA administration measured after 6 hrs by hematoxylin and eosin staining based microscopic analysis.
The test system of test [3] is Mus musculus. The test is described as follows: Anti-inflammatory activity in Balb/c mouse assessed as reduction in TPA-induced hyperkeratosis at 0.75 uM administered topically 6 mins prior to TPA administration measured after 6 hrs by hematoxylin and eosin staining based microscopic analysis.
In test [4] the test system is Mus musculus. Nature of the test: In vivo inhibition of IKK-mediated NF-kB activation in Balb/c mouse assessed as decrease in TPA-induced p65 expression at 0.75 uM administered topically 6 mins prior to TPA administration measured after 6 hrs by immunohistochemical analysis.
The subject of test [5] is Mus musculus. Nature of the test: In vivo inhibition of IKK-mediated NF-kB activation in Balb/c mouse assessed as decrease in TPA-induced phosphorylation of IKBalpha at Ser-32 residue at 0.75 uM administered topically 6 mins prior to TPA administration measured after 6 hrs by immunohistochemical analysis.
The test system of test [6] is Mus musculus. The test is described as follows: In vivo inhibition of IKK-mediated NF-kB activation in Balb/c mouse assessed as decrease in TPA-induced IL-6 expression at 0.75 uM administered topically 6 mins prior to TPA administration measured after 6 hrs by immunohistochemical analysis.
Test [7] concerns Mus musculus. Nature of the test: In vivo inhibition of IKK-mediated NF-kB activation in Balb/c mouse assessed as decrease in TPA-induced phospho-Ser536 p65 expression at 0.75 uM administered topically 6 mins prior to TPA administration measured after 6 hrs by immunohistochemical analysis.
Test [8] relates to Mus musculus. Nature of the test: In vivo inhibition of IKK-mediated NF-kB activation in Balb/c mouse assessed as decrease in TPA-induced TNFalpha expression at 0.75 uM administered topically 6 mins prior to TPA administration measured after 6 hrs by immunohistochemical analysis.
Test [9] relates to Mus musculus. The test is described as follows: In vivo inhibition of IKK-mediated NF-kB activation in Balb/c mouse assessed as decrease in TPA-induced COX2 expression at 0.75 uM administered topically 6 mins prior to TPA administration measured after 6 hrs by immunohistochemical analysis.
Test [10] relates to Mus musculus. Nature of the test: Anti-inflammatory activity in Balb/c mouse assessed as reduction in TPA-induced epidermal hyperplasia at 0.75 uM administered topically 6 mins prior to TPA administration measured after 6 hrs by hematoxylin and eosin staining based microscopic analysis.
For test [11], the system named is Mus musculus. Nature of the test: In vivo inhibition of IKK-mediated NF-kB activation in Balb/c mouse assessed as decrease in TPA-induced IL-1beta expression at 0.75 uM administered topically 6 mins prior to TPA administration measured after 6 hrs by immunohistochemical analysis.
The test system of test [12] is Mus musculus. Nature of the test: In vivo inhibition of IKK activation in Balb/c mouse at 0.75 uM administered topically 6 mins prior to TPA administration measured after 6 hrs by immunohistochemical analysis.
Test [13] concerns Mus musculus. The test is described as follows: Potency index, ratio of compound to celecoxib potency for reduction in TPA-induced ear edema in Balb/c mouse.

In the case of `CC(C)Cn1c(-c2ccccc2)cc2c1CCC2`, the Activity in the test with Mus musculus [1] is 6.91%.

Take `C#CCn1c(-c2ccc(C)cc2)cc2c1CCC2`: the Activity in the test with Mus musculus [1] is given as 4.92%.

On to `c1ccc(CCn2c(-c3ccccc3)cc3c2CCC3)cc1`, for which, in the test with Mus musculus [1], the Activity is recorded as -1.86%.

As for `CCCn1c(-c2ccccc2)cc2c1CCC2`, the result with Mus musculus [2], with Mus musculus [3] and with Mus musculus [10] was Active. Moreover, the Activity in the test with Mus musculus [1] turned out to be 57.31%. For the same compound, the inhibition result in the test with Mus musculus [4], in the test on Mus musculus [5], in the test with Mus musculus [6], in the test with Mus musculus [7], in the test on Mus musculus [8] and in the test on Mus musculus [9] was “Active” throughout. The inhibition result in the test with Mus musculus [11] and in the test with Mus musculus [12] was “Active” throughout. Moreover, the Ratio with Mus musculus [13] is 3.2.

Regarding `COc1ccc(Cn2c(-c3ccccc3)cc3c2CCC3)cc1`, in the test on Mus musculus [1], the Activity is listed as 2.93%.

For `O=[N+]([O-])c1ccc(-n2c(-c3ccccc3)cc3c2CCC3)cc1`, the Activity with Mus musculus [1] was -12.9%.

For `c1ccc(-c2cc3c(n2C2CC2)CCC3)cc1`, the Activity in the test with Mus musculus [1] is recorded as 20.88%.

On to `c1ccc(CCCn2c(-c3ccccc3)cc3c2CCC3)cc1`, for which the Activity in the test with Mus musculus [1] is on record as -13.56%.

For `c1ccc(-c2cc3c([nH]2)CCC3)cc1`, in the test on Mus musculus [1], the Activity came to 10.23%.

For the compound `COc1ccc(Cn2c(-c3ccc(C)cc3)cc3c2CCC3)cc1`, in the test on Mus musculus [1], the Activity is given as 7.71%.

In the case of `CC(C)(C)c1cc2c(n1-c1ccccc1)CCC2`, the Activity with Mus musculus [1] is reported as -0.53%.

For the compound `c1ccc(-c2cc3c(n2-c2ccccc2)CCC3)cc1`, the Activity in the test on Mus musculus [1] is -0.93%.

With `CCn1c(-c2ccccc2)cc2c1CCC2`, the Activity with Mus musculus [1] is 13.56%.

Regarding `Brc1ccc(-n2c(-c3ccccc3)cc3c2CCC3)cc1`, the Activity in the test on Mus musculus [1] was found to be 15.96%.

In the case of `COCCCn1c(-c2ccccc2)cc2c1CCC2`, the Activity with Mus musculus [1] came to 1.46%.

With `COc1ccc(-c2cc3c([nH]2)CCC3)cc1`, the Activity in the test on Mus musculus [1] amounted to 17.55%.

Consider `Clc1ccc(-n2c(-c3ccccc3)cc3c2CCC3)cc1`, for which the Activity in the test on Mus musculus [1] is reported as 19.41%.

As for `CCCCn1c(-c2ccccc2)cc2c1CCC2`, the Activity with Mus musculus [1] was -9.17%.

Regarding `c1ccc(-c2cc3c(n2C2CCCCC2)CCC3)cc1`, the Activity in the test on Mus musculus [1] amounted to 19.02%.

As to `Cc1ccc(-c2cc(C(F)(F)F)nn2-c2ccc(S(N)(=O)=O)cc2)cc1` [CELECOXIB], the outcome in the test on Mus musculus [2], in the test with Mus musculus [3] and in the test on Mus musculus [10] was Active. The Activity in the test with Mus musculus [1] was determined as 17.95%. Besides, the inhibition result with Mus musculus [4], in the test on Mus musculus [6], with Mus musculus [7], in the test on Mus musculus [8], with Mus musculus [9] and in the test on Mus musculus [11] was “Active” in each case.

Take `CC(C)(C)c1cc2c([nH]1)CCC2`: the Activity with Mus musculus [1] is listed as 9.71%.

Consider `c1ccc(Cn2c(-c3ccccc3)cc3c2CCC3)cc1`, for which the Activity in the test on Mus musculus [1] was determined as 25.66%.

Consider `Clc1ccccc1-n1c(-c2ccccc2)cc2c1CCC2`, for which the Activity in the test on Mus musculus [1] is -6.78%.

With `C#CCn1c(-c2ccccc2)cc2c1CCC2`, in the test on Mus musculus [1], the Activity was 8.77%.

`c1ccc(-c2cc3c(n2-c2ccccc2)CC(c2ccccc2)C3)cc1` (configuration not stated): the Activity in the test on Mus musculus [1] amounted to 16.09%.

For the compound `Cc1ccc(-c2cc3c(n2-c2ccccc2)CCC3)cc1`, the Activity in the test on Mus musculus [1] was found to be 0.53%.

Source of the values: ChEMBL document CHEMBL3856269, “Anti-inflammatory activity effect of 2-substituted-1,4,5,6-tetrahydrocyclopenta[b]pyrrole on TPA-induced skin inflammation in mice” (2016).
